Assay [1] has as its system mRNA for one or more of 5-HT2A, 5-HT2B or 5-HT2C receptor proteins. Nature of the assay: Microarray gene expression in CD3+ lymphocytes, summary statement over 5-HT2 receptors. The format is cell-based, human. Particulars: both higher dose (10 uM) and low dose (10 nM) naltrexone, 4 h.
Procedure: (§1) CD3+ lymphocytes were isolated from the blood of haematologically normal volunteers. Cells placed into 25 cm3 flasks at a concentration of 1×10^6/ml, and left to equilibrate in an incubator with a humidified atmosphere and 5% CO2 in air at 37° C. […] RNA extraction was performed using Trizol according to standard procedures, before being processed for microarray analysis according to the standard methodologies. Briefly, equal amounts of biotinylated cRNA was hybridised to the Illumina human HT12-v3 arrays for 18 h and subsequently processed according to manufacturer's instructions before scanning on an Illumina BeadArray Reader. The image data were processed using default values in GenomeStudio v2009.1 with imputation of missing data, before loading onto GeneSpring v9.0 for data normalisation and filtering. Data analyses were performed using Excel software, and the ratio of gene expression signals in treated vs. untreated calculated.
For assay [2], the system named is 5-HT receptor 2B (HTR2B), mRNA. Nature of the assay: Microarray gene expression in CD3+ lymphocytes, HTR2B probe ILMN_1735764. To be noted: 4 h, Illumina HT12-v3 array. The format is cell-based, human.
Procedure: as §1

For `O=C1CC[C@@]2(O)[C@H]3Cc4ccc(O)c5c4[C@@]2(CCN3CC2CC2)[C@H]1O5` [NTX, morphinan-6-one, 17-(cyclopropylmethyl)-4,5-epoxy-3,14-dihydroxy-(5α)], the “levels of mRNA for one or more of 5-HT2A, 5-HT2B or 5-HT2C receptor proteins” value in assay [1] is “selectively increase the levels of mRNA”. In addition, the “gene expression signal, LDN” value in assay [2] (low dose naltrexone 10 nM) is 147.45. The “gene expression signal, NTX” value in assay [2] (naltrexone 10 uM) stood at 177.95.

The values are drawn from patent US20240293395A1, “NALTREXONE FOR IMPROVING THE […] OF 5-HT RECEPTOR SUBTYPE 2A, 2B or 2C AGONISTS” (LDN Pharma Limited, priority 2021, published 2024).
